US20240150396A1 (The Texas A&M University System, priority 2021, published 2024)
“And” between values parts separate entries of the source, which are not always exact repeats. Equal entries are not always repeated. Where two headings read alike, the source gives them in different places. Non-standard residues stand in square brackets, D forms with d. Residues, ends and D or L forms follow the SMILES beside them. *: point of attachment. Phe(2-OMe) = COc1ccccc1C[C@H](N)C(=O)O; hPhe = N[C@@H](CCc1ccccc1)C(=O)O; 4Pal = N[C@@H](Cc1ccncc1)C(=O)O; AMC = Cc1cc(=O)oc2cc(N*)ccc12; Cbz = O=C(OCc1ccccc1)*

Experiments:
[1] = molecular target: T1, cruzain (Trypanosoma cruzi, UniProt P25779); assay: biochemical; conditions: pH 7.5
Procedure: All enzyme assays were performed at 25° C. Initial rates of the peptidolytic reaction catalyzed by cruzain were measured by monitoring the fluorescence generated by cleavage of the dipeptide-AMC bond. Assays were conducted in 96-well plates (Greiner; flat-bottom, clear black plates) in a total volume of 250 μL, containing either 50 mM MES (pH 7.5), 50 mM TAPSO, 100 mM DEA, 1 mM CHAPS, 1 mM Na2EDTA, 5 mM DTT, and 10% DMSO (v/v) or 50 mM sodium acetate (pH 5.5), 50 mM MES, 100 mM TEA, 1 mM CHAPS, 1 mM Na2EDTA, 5 mM DTT, and 10% DMSO (v/v). Substrates were dissolved in 100% DMSO and were then diluted 10-fold such that when added to reaction mixtures, final DMSO concentration was 10% (v/v). […] Fluorescence was measured on either a SpectraMax M5 (Molecular Devices) or a Synergy HTX (BioTek, Winooski, VT) microplate reader (λex=360 nm, λem=460 nm). Initial rates were determined from continuous kinetic time courses and calculated from the earliest time points, typically at less than 10 min.
(2) Enzyme and compound were preincubated over extended periods of time, and then aliquots were removed and diluted 50-fold to 100-fold into reaction mixtures containing 10 μM Cbz-Phe-Arg-AMC, followed by the assessment of the resulting time courses.
Data for time-dependent inhibition were fitted by several methods.
Values of kobs versus [inhibitor] were then replotted and fitted to eq 4 for which k3 and k4 represent the respective rates of formation and dissolution of the EI* complex as depicted in FIG. 9.
In addition, time-course data were fitted globally by two methods. First, expressions for vs, vi, and kobs were substituted into eq 3 to generate eq 6, which was used to fit time-course data at all concentrations of inhibitors simultaneously. Second, time-course data were fitted using KinTek Explorer as either a single-binding step model with the two kinetic parameters k3/Ki and k4 or a two-step binding mechanism as shown in FIG. 9 from which rate constants k1-k4 are determined (Supporting Information).
Enzyme Assays. The preparation of cruzain and 3CL^pro were described in previous publications.^8, 34 The evaluation of inhibitors was modified from our lab protocol and described briefly as follows.^35 All enzyme assays were conducted in 96-well, clear bottom, black plates at 25° C., and fluorescence emanating from product formation was measured using either a SpectraMax M5 (Molecular Devices) or a Synergy HTX (Biotek) microplate reader, with excitation at λex=360 nm and emission at λem=460 nm. […] Reactions were started with addition of enzyme (typically, to a final concentration of 0.2 nM for cruzain or 40 nM for 3CL^pro), and the time courses were recorded for 0.5-1 h.
Kinetic Data Analysis. All time-course data were fitted to eq. 1, wherein P is the fluorescence generated by formation of AMC or liberated ACC, C is the background constant, vi and vs are respectively initial-state and steady-state reaction rates, t is time, and kobs is the observed rate of conversion of the initial inhibited rate to the final inhibited rate.^46
Overall inhibition constants (Ki* values) were obtained by fitting vs/v0 to eq. 4, wherein vs and v0 are steady-state reaction rates in the presence and absence of inhibitor respectively, [S] and [I] represent the fixed concentration of substrate and variable inhibitor, Km is the Michaelis constant of the substrate.

[2] = Thiolation of inhibitors with glutathione, LCMS; type: physicochemical; conditions: 1 mM glutathione, 0.5 mM compound, Tris pH 8.0, 10% DMSO, room temperature
Procedure: Samples were analyzed by HPLC-MS (as described above) by injecting 0.01 mL aliquots onto a Luna […] C18(2) 100 Å, 4.6 mm, 50 mm column (Phenomenex) using the HPLC method described in the chemistry section at 0-6 h time points. […] Integration of the chromatographic peaks of the inhibitors and their GSH adducts at each time point was used to determine the rate of GSH adduct formation.

[3] = molecular target: human cathepsin L (Homo sapiens (Human), UniProt P07711); assay: Human cathepsin L inhibition, Z-FR-AMC assay; type: biochemical
Procedure: (§1) Recombinant human cathepsins B and L were purchased from Millipore Sigma and used without further treatment. The solid proteins were dissolved into a solution of 50 mM sodium acetate (pH 5.5), 1 mM EDTA, 1 mM CHAPS, 10% (v/v) DMSO, and 5 mM DTT to final concentrations of […] in 20-mL aliquots, and stored at −80° C. until needed. These samples were then diluted into the same buffer to concentrations of −100 nM, and these dilutions were stored at 4° C. and used daily until depletion.
(§2) For assays of cathepsin L and B, inhibitors were evaluated in 0.25-mL reaction mixtures containing a buffer of sodium acetate (pH 5.5), 1 mM CHAPS, 1 mM Na2EDTA, and 5 mM DTT at 25° C. The fluorogenic substrate Cbz-Phe-Arg-7-amino-4-methyl-coumarin (Z-FR-AMC) was dissolved in 100% DMSO, as were all inhibitors, and aliquots of both substrates and inhibitors were added to reaction mixtures to final concentrations of DMSO of 10% (v/v). […] Formation of the fluorescent product AMC was monitored over 30-60-minute time courses for reaction mixtures in 96-well black microplates (Corning Costar®). Rates of peptidolysis of the dipeptide-AMC substrate(s) were measured on either a SpectraMax M5 (Molecular Devices) or a Synergy HTX (Biotek, Wisnooki, VT) microplate reader with λex=360 nm, λem=460 nm in ≥8-sec intervals. Control samples excluded substrate. The measured relative fluorescence units (RFUs) of generated AMC were converted to reaction rates of μM/s by use of a standard curve of known AMC concentrations obtained for both plate readers.

[4] = molecular target: human cathepsin B (Homo sapiens (Human), UniProt P07858); assay: Human cathepsin B inhibition, Z-FR-AMC assay; type: biochemical
Procedure: as §1, §2

[5] = molecular target: T1, cruzain; assay: Kinetic parameters of peptide substrates for cruzain; type: biochemical; conditions: for Km / kcat / kcat/Km: pH 7.5, 25° C., 10% DMSO; for kcat rel: relative to Cbz-Phe-Arg-AMC
Procedure: All enzyme assays were performed at 25° C. Initial rates of the peptidolytic reaction catalyzed by cruzain were measured by monitoring the fluorescence generated by cleavage of the dipeptide-AMC bond. Assays were conducted in 96-well plates (Greiner; flat-bottom, clear black plates) in a total volume of 250 μL, containing either 50 mM MES (pH 7.5), 50 mM TAPSO, 100 mM DEA, 1 mM CHAPS, 1 mM Na2EDTA, 5 mM DTT, and 10% DMSO (v/v) or 50 mM sodium acetate (pH 5.5), 50 mM MES, 100 mM TEA, 1 mM CHAPS, 1 mM Na2EDTA, 5 mM DTT, and 10% DMSO (v/v). Substrates were dissolved in 100% DMSO and were then diluted 10-fold such that when added to reaction mixtures, final DMSO concentration was 10% (v/v). Reactions were initiated with the addition of 1-10 μL of cruzain (final concentrations: 0.1-3.0 nM (preincubation studies)). Fluorescence was measured on either a SpectraMax M5 (Molecular Devices) or a Synergy HTX (BioTek, Winooski, VT) microplate reader (λex=360 nm, λem=460 nm). Initial rates were determined from continuous kinetic time courses and calculated from the earliest time points, typically at less than 10 min.
Initial velocity data for cruzain-catalyzed reactions of fluorogenic peptide substrates were determined by fitting to eq 1 using GraphPad Prism 6.0 or SigmaPlot 12.0. For eq 1, kcat is the turnover number, [E]t is the concentration of active sites of cruzain, and Ka is the Michaelis constant for the substrate A. Cruzain concentrations were determined by spectrophotometric analysis of purified sample solutions as described.^44

[6] = molecular target: SARS-CoV-2 3CL protease (Severe acute respiratory syndrome coronavirus 2 (2019-nCoV) (SARS-CoV-2), UniProt P0DTD1); assay: biochemical; type: biochemical; conditions: read-out: Ki* 3CLpro
[7] = system: T. cruzi (Ca-I/72) in C2C12 murine cardiomyoblasts; assay: T. cruzi-infected murine cardiomyoblasts (C2C12); type: cell-based, Trypanosoma cruzi; conditions: read-out: EC50 T. cruzi-infected cardiomyoblasts
Procedure: For the evaluation of the antitrypanocidal activity of cruzain inhibitors, we infected a C2C12 mouse cardiomyoblast cell line (ATCC CRL-1772) with T. cruzi strain Ca-I/72 (a gift from James Dvorak, National Institutes of Health) in […] plates. […] The plates were incubated at 37° C. for 48 h, and the wells were fixed with 2% paraformaldehyde in PBS and stained with 5 μg mL-1 4,6-diamidino-2-phenylindole. After at least 30 min of incubation at room temperature in the dark, the plates were read in an automated microscope, ImageXpress Micro XL (Molecular Devices), and the images were analyzed by custom-built software to quantify and assess viability of the parasites, as well as the host cells independently. The compilation of data was used to calculate the antiparasitic activity (EC50) and host cytotoxicity (CC50).
T. cruzi infection was evaluated in C2C12 murine cardiomyoblast cells. 384-microwell plates containing C2C12 murine cardiomyoblast cells were infected with 10^3 and 10^4 cells of T. cruzi (Ca-I/72), to which was added 3-fold serially-dilutions of inhibitor with maximal concentrations of 10 μM, followed by incubation at 37° C. for 2 days. The wells were fixed with 2% PFA in PBS, and stained by 5 μg/ml of DAPI. After >30 min of incubation in a dark environment, the plates were read on an ImageXpress MicroXL microscope (Molecular Devices). The images were analyzed to quantify parasites as well host cells.

[8] = system: T. b. brucei procyclic forms; assay: Growth of axenic cultures of T. b. brucei procyclic forms (PCFs); type: cell-based, Trypanosoma brucei brucei; conditions: Trypanosoma brucei, axenic culture; read-out: EC50 T. b. brucei PCF
[9] = system: T. b. brucei bloodstream forms; assay: Growth of axenic cultures of T. b. brucei bloodstream forms (BSFs); conditions: Trypanosoma brucei, read-out: EC50 T. b. brucei BSF, axenic culture
[10] = apparent tight-binding inhibition constant, 25° C., read-out: Ki*
[11] = obtained >10 minutes following initiation of reaction by addition of enzyme, read-out: Ki* Cruzain
[12] = Trypanosoma cruzi, C2C12, C2C12 murine cardiomyoblasts

T1 sequence (P25779 123-467 limits assumed): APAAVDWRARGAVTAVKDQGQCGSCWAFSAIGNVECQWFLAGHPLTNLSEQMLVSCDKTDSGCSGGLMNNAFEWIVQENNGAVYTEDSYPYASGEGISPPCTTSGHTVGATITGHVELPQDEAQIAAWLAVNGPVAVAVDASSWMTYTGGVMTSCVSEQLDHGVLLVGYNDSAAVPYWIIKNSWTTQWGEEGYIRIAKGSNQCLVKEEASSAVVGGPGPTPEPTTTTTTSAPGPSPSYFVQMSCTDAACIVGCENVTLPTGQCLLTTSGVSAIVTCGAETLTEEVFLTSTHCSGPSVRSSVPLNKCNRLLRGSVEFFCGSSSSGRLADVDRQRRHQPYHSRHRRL
Chain of human cathepsin L (P07711 114-333): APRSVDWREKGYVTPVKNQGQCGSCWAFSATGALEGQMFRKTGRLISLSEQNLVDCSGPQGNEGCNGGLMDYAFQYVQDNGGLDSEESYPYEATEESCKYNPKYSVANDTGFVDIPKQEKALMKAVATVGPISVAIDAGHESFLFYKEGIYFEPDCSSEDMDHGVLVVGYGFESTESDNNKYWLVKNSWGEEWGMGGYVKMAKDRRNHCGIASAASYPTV

For `C[n+]1ccsc1/C=C/[C@H](Cc1ccccc1)NC(=O)[C@H](Cc1ccccc1)NC(=O)OCc1ccccc1.[I-]` [Compound 26, 2-((S,E)-3-((S)-2-(((Benzyloxy)carbonyl)amino)-3-phenylpropanamido)-4-phenylbut-1-en-1-yl)-3-methylthiazol-3-ium Iodide], the Ki [1, 10] was 940 ± 60 nM and the “Rate of Thiolation, k” value [2] was 0.25 ± 0.083 M⁻¹ s⁻¹.
For `Cc1cc(=O)oc2cc(NC(=O)[C@H](CCCN=C(N)N)NC(=O)[C@H](Cc3ccccc3)NC(=O)OCc3ccccc3)ccc12` [Compound S1, Cbz-Phe-Arg-AMC] (Cbz-Phe-Arg-{AMC}), the Km ([3]; pH 5.5) was 2.9 µM, the Km ([4]; pH 5.5) was 150 µM and the Km [5] was 0.89 ± 0.09 µM. For the same compound, the kcat [5] was 9.6 ± 0.2 s⁻¹, the kcat/Km [5] was 1.1e+07 ± 1e+06 M⁻¹ s⁻¹ and the Km ([5]; listed as Cbz-Phe-Arg-AMC) was 0.9 µM. For the same compound, the kcat/Km ([5]; listed as Cbz-Phe-Arg-AMC) was 1.1e+07 M⁻¹ s⁻¹ and the kcat rel [5] was 1.00.
`COc1ccccc1C[C@@H](C=O)NC(=O)[C@H](Cc1ccccc1)NC(=O)OCc1ccccc1` [Compound 29] (Cbz-Phe-[Phe(2-OMe)]-aldehyde) showed a Ki [1, 11] of 22 nM and a Ki [6] greater than 10000 nM.
For `Cc1ccc2c(c1)C[C@H](NC(=O)[C@H](Cc1ccccc1)NC(=O)OCc1ccccc1)C(O)O2` (stereo partly drawn) [Compound 32, Benzyl ((2S)-1-(((3S)-2-hydroxy-6-methylchroman-3-yl)amino)-1-oxo-3-phenylpropan-2-yl)carbamate], the Ki ([1]; Ki* Cruzain, obtained >10 minutes following initiation of reaction by addition of enzyme) was 100 nM, the Ki [1, 11] was 103 ± 5 nM and the Ki ([3]; pH 5.5, 25° C., read-out: Ki* hCatL) was 58 ± 2 nM. It also gave a Ki ([4]; pH 5.5, 25° C., read-out: Ki* hCatB) of 6100 ± 900 nM, a Ki ([6]; pH 7.5) greater than 10000 nM and an EC50 ([7]; C2C12 murine cardiomyoblasts) of 3000 to 5700 nM. For the same compound, the EC50 [7, 12] was 5700 ± 600 nM, the EC50 [8] was 7000 nM and the EC50 [9] was 500 nM.
`NCCCC[C@@H](/C=C/c1ccccn1)NC(=O)[C@H](Cc1ccccc1)NC(=O)OCc1ccccc1` [Compound 20, (S,E)-5-((S)-2-(((Benzyloxy)carbonyl)amino)-3-phenylpropanamido)-7-(pyridin-2-yl)hept-6-en-1-aminium Chloride] gave a Ki ([1]; apparent initial inhibition constant, 25° C., read-out: Ki) of 17300 ± 300 nM, a Ki [1, 10] of 870 nM and an EC50 [7, 12] of 5000 to 8000 nM.
For `O=C(N[C@@H](Cc1ccccc1)C(=O)N[C@H](/C=C/c1nccs1)Cc1ccccc1)OCc1ccccc1` [Compound 25, Benzyl ((S)-1-Oxo-3-phenyl-1-(((S,E)-1-phenyl-4-(thiazol-2-yl)-but-3-en-2-yl)amino)propan-2-yl)carbamate], the Ki [1, 10] was 1710 nM and the “Rate of Thiolation, k” value [2] was “Negligible”.
For `Cc1cc(=O)oc2cc(NC(=O)[C@H](CCc3ccccc3)NC(=O)[C@H](Cc3ccncc3)NC(=O)OCc3ccccc3)ccc12` [Compound S8, Cbz-(4-Pyr)Ala-hPhe-AMC] (Cbz-[4Pal]-[hPhe]-{AMC}), the Km [5] was 4.6 µM, the kcat [5] was 5.3 s⁻¹ and 5.3 ± 0.2 s⁻¹ and the kcat/Km [5] was 1.1e+06 ± 100000 M⁻¹ s⁻¹. It also gave a kcat rel [5] of 0.55.
